Reference: US9624214B2, “Amino-substituted imidazo[1,2-a]pyridinecarboxamides and their use” (BAYER PHARMA AKTIENGESELLSCHAFT, priority 2012, dated 2017)

molecular target: T1, recombinant guanylate cyclase reporter cell line (Rattus norvegicus, UniProt P19686+P20595); assay: B-2. Action on recombinant guanylate cyclase reporter cell line; format: cell-based; details: MEC = minimal effective concentration; in some cases mean values from individual determinations
T1 construct: expressed in transfected cells
T1 sequence (P20595 1-619): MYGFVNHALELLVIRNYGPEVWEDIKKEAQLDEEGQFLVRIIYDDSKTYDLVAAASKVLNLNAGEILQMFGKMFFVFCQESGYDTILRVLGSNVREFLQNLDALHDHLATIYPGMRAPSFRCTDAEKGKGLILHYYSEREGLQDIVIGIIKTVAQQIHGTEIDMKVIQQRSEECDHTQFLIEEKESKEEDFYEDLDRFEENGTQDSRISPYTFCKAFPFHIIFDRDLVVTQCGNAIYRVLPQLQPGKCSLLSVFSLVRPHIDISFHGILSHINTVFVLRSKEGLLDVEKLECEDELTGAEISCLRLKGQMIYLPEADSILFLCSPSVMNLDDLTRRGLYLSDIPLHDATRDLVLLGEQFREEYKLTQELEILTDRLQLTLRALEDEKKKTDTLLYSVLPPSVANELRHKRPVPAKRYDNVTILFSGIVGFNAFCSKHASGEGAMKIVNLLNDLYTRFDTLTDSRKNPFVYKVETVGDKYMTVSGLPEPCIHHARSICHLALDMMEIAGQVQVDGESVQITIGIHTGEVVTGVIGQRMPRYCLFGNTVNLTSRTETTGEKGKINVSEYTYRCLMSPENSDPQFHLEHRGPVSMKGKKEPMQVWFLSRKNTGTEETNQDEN
T1 sequence (P19686 1-690): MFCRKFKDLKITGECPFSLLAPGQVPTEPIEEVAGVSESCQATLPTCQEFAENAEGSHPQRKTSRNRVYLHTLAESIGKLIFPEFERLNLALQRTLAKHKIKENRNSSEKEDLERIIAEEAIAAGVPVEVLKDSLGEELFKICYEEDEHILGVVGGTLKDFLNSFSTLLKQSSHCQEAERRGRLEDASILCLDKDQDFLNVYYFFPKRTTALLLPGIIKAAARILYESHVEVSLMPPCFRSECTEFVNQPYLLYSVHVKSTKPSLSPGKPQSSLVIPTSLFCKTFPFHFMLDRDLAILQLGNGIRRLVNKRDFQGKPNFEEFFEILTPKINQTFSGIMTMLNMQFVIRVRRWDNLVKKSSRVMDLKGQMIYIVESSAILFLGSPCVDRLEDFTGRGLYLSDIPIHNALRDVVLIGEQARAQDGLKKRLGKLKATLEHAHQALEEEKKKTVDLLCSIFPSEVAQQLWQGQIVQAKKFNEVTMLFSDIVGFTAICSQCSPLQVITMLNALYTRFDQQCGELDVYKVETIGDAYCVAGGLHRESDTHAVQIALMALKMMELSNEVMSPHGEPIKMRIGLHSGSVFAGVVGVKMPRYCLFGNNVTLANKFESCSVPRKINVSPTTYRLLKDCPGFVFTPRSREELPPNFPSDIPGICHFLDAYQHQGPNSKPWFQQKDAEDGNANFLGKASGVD
Summary of the method: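 MEC values, meaning the lowest concentration producing a detectable response, were taken from a recombinant cyclase reporter cell assay. Where repeated, individual determinations were averaged.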

| SMILES | MEC |
| --- | --- |
| Cc1cc(OCc2c(F)cccc2F)c2nc(C)c(C(=O)N[C@@H]3CCCC[C@H]3N)n2c1 [Example 251, ent-N-[(1R,2R)-2-Aminocyclohexyl]-8-[(2,6-difluorobenzyl)oxy]-2,6-dimethylimidazo[1,2-a]-pyridine-3-carboxamide] | 3.00 µM |
| CCC(N)(CC)CNC(=O)c1c(C)nc2c(OCc3c(F)cccc3F)cccn12 [Example 253, N-(2-Amino-2-ethylbutyl)-8-[(2,6-difluorobenzyl)oxy]-2-methylimidazo[1,2-a]pyridine-3-carboxamide] | 0.10 µM |
| Cc1cc(OCc2c(F)cccc2F)c2nc(C)c(C(=O)NCCNC(C)(C)C)n2c1 [Example 255, N-[2-(tert-Butylamino)ethyl]-8-[(2,6-difluorobenzyl)oxy]-2,6-dimethylimidazo[1,2-a]pyridine-3-carboxamide] | 0.30 µM |
| CCCC(C)(N)CNC(=O)c1c(C)nc2c(OC(C)c3c(F)cccc3F)cc(C)cn12 (stereo not shown) [Example 257, N-(2-Amino-2-methylpentyl)-8-[1-(2,6-difluorophenyl)ethoxy]-2,6-dimethylimidazo[1,2-a]-pyridine-3-carboxamide] | 1.00 µM |
| Cc1cc(OCc2c(F)ccc(F)c2F)c2nc(C)c(C(=O)NCC(C)(C)N)n2c1 [Example 276, N-(2-Amino-2-methylpropyl)-2,6-dimethyl-8-[(2,3,6-trifluorobenzyl)oxy]imidazo[1,2-a]pyridine-3-carboxamide] | 0.10 µM |
| COC(=O)[C@@H](N)CCCCNC(=O)c1c(C)nc2c(OCc3c(F)cccc3F)cc(C)cn12 [Example 294, Methyl N^6-({8-[(2,6-difluorobenzyl)oxy]-2,6-dimethylimidazo[1,2-a]pyridin-3-yl}carbonyl)-L-lysinate] | 0.065 µM |
| CCCC(C)(N)CNC(=O)c1c(C(F)(F)F)nc2c(OCc3c(F)cccc3F)cc(C)cn12 (stereo not drawn) [Example 305, ent-N-(2-amino-2-methylpentyl)-8-[(2,6-difluorobenzyl)oxy]-6-methyl-2-(trifluoromethyl)imidazo[1,2-a]pyridine-3-carboxamide] | 0.10 µM |
| CCCC(C)(N)CNC(=O)c1c(C)nc2c(OCc3c(F)cccc3F)cc(Br)cn12 (stereo not drawn) [Example 306, ent-N-(2-amino-2-methylpentyl)-6-bromo-8-[(2,6-difluorobenzyl)oxy]-2-methylimidazo[1,2-a]pyridine-3-carboxamide] | 0.10 µM |
| Cc1cc(OCc2c(F)cccc2F)c2nc(C)c(C(=O)NCC3(N)CCCCC3)n2c1 [Example 307, N-[(1-aminocyclohexyl)methyl]-8-[(2,6-difluorobenzyl)oxy]-2,6-dimethylimidazo[1,2-a]pyridine-3-carboxamide] | 0.65 µM |
| Cc1cc(OCc2c(F)cccc2F)c2nc(C)c(C(=O)N[C@H]3C[C@H]4CN(C)CCN4C3)n2c1 [Example 314, 8-[(2,6-Difluorobenzyl)oxy]-2,6-dimethyl-N-[(7S,8aS)-2-methyloctahydropyrrolo[1,2-a]pyrazin-7-yl]imidazo[1,2-a]pyridine-3-carboxamide] | 0.30 µM |
| CCC(C)(CN)NC(=O)c1c(C)nc2c(OCc3c(F)ccc(F)c3F)cc(C)cn12 (stereo not drawn) [Example 315, ent-N-(1-amino-2-methylbutan-2-yl)-2,6-dimethyl-8-[(2,3,6-trifluorobenzyl)oxy]imidazo[1,2-a]pyridine-3-carboxamide] | 0.30 µM |
| CCCC(C)(N)CNC(=O)c1c(C)nc2c(OCc3c(F)cccc3F)cccn12 (stereo not drawn) [Example 318, ent-N-(2-amino-2-methylpentyl)-8-[(2,6-difluorobenzyl)oxy]-2-methylimidazo[1,2-a]pyridine-3-carboxamide] | 0.30 µM |
| COC(=O)[C@@H](N)CNC(=O)c1c(C)nc2c(OCc3c(F)cccc3F)cc(C)cn12 [Example 319, Methyl 3-[({8-[(2,6-difluorobenzyl)oxy]-2,6-dimethylimidazo[1,2-a]pyridin-3-yl}carbonyl)amino]-L-alaninate] | 0.30 µM |
